{"source": "patent US8138166B2", "about": "“Method to induce fatty liver in animal” (Taipei Medical University, priority 2010, dated 2012)", "key": {"liver [1]": {"test_system": "liver", "assay": "Liver histopathology (H&E staining) of SD rats fed high fat diet and injected with rotenone", "assay_type": "in vivo", "details": "experimental group: 60% high fat diet + rotenone 2.5 mg/kg/day i.p., 8 weeks", "source_text": "(§1) SD rats are selected to use as the laboratory animals in the present embodiment. All SD rats are bred at the cages, and adequate feeds and water are given during the adaptive period and the experimental period. After the adaptive period, the SD rats are randomly divided into three groups concluding a control group, an experimental group, and a contrast group, and there are 6 SD rats in each group. In the control group, the SD rats are fed with AIN-93M diet. The SD rats in the experimental group are fed with the modified AIN-93M diet whose fat calorie is accounted for 60% of total calorie thereof, and the mitochondrial inhibitor (rotenone) is injected into the SD rats via an intraperitoneal injection once every two days. The dosage of the rotenone is about 2.5 mg/kg/day. The components of the diet and the fat percentage in the contrast group and the experimental group are the same. Normal saline is injected into the SD rats in the contrast group via the intraperitoneal injection to differentiate from the experimental group. After feeding 8 weeks, the SD rats in each group are sacrificed to collect arteria coeliaca blood and to obtain livers after perfusing 0.9% normal saline thereinto for determining the pathological analysis of the liver, the blood biochemical analysis and the liver biochemical analysis.\nLivers of the SD rats in each group are all stained by H&E staining. […]"}, "Visceral fat weight": {"assay": "Visceral fat weight", "assay_type": "in vivo, SD rats", "details": "experimental group: 60% high fat diet + rotenone 2.5 mg/kg/day i.p. once every two days, 8 weeks; epididymis and perirenal adipose tissue", "source_text": "as §1, with “analysis. […]” for “analysis.”"}, "[2]": {"assay": "Blood biochemical analysis and liver function index", "assay_type": "in vivo, SD rats", "details": "experimental group: 60% high fat diet + rotenone i.p., 8 weeks", "source_text": "as §1\nThe blood biochemical analyses of cholesterol, triglyceride, and non-esterified fatty acids are examined. The liver function indexes of aspartate aminotransferase (AST) and alanine aminotransferase (ALT) are also analyzed."}, "liver [3]": {"test_system": "liver", "assay": "Liver biochemical analysis (liver lipids, TBARS, TNF-α, hydroxyproline)", "assay_type": "in vivo, SD rats", "details": "experimental group: 60% high fat diet + rotenone i.p., 8 weeks", "source_text": "as §1\nThe lipid extracts are obtained from the livers of the SD rats in each group to analyze the contents of total cholesterol, triglyceride, and non-esterified fatty acids, as shown below Table 2.\nAdditionally, if oxidative stress, such as reactive oxygen species (ROS), is increased in vivo, lipid peroxides may be increased. Because the half life of the ROS is shorter than that of the lipid peroxides, the lipid peroxides, such as thiobarbituric acid-reactive-substance (TBARS), are used as the oxidative stress index. The livers of the SD rats in each group are respectively prepared to obtain homogeneous liquids for analyzing the concentration of the TBARS by a fluorophotometer. […] The concentrations of the TBARS in the control group, the experimental group and the contrast group are respectively 0.51±0.05, 2.18±0.19 and 1.15±0.09 μM/mg protein. That means in the experimental group, the oxidative stress in the livers of the SD rats is highest.\nIn the NAFLD progression, when high oxidative stress is existed in a liver for a long time, inflammatory cytokines, such as tumor necrosis factor-alpha (TNF-α), are increased. After the SD rats are sacrificed, the concentration of the TNF-α is determined to analyze whether the inflammatory response is induced or not. […] The concentrations of TNF-α in the control group, the experimental group, and the contrast group are respectively 13.96±1.05, 21.34±0.77, and 19.51±1.11 pg/mg protein. Following the results as set forth, the livers of rats in the experimental group have the inflammatory response. […] But, once livers are existed in high oxidative stress, the liver injuries thereof from simple steatosis to necrosis or fibrosis are performed. Therefore, the collagen index (i.e. the fibrosis index), hydroxyproline, in the livers should be determined. The concentrations of the hydroxyproline in the control group, the experimental group, and the contrast group are 3.32±1.05, 6.68±0.77, and 4.05±1.11 μg/mg protein, respectively. It indicates the concentration of the hydroxyproline in the experimental group is higher than those of in the control group and the contrast group."}, "[4]": {"test_system": "NADH cytochrome c reductase (NCCR), mitochondrial complex I and III", "assay": "NCCR activity in hepatocytes", "assay_type": "in vivo, SD rats", "details": "experimental group: 60% high fat diet + rotenone i.p., 8 weeks", "source_text": "as §1\n(§2) Rotenone is hydrophobic, and can diffuse to organelles including mitochondria. […]"}, "[5]": {"test_system": "succinate cytochrome c reductase (SCCR), mitochondrial complex II and III", "assay": "SCCR activity in hepatocytes", "assay_type": "in vivo, SD rats", "details": "experimental group: 60% high fat diet + rotenone i.p., 8 weeks", "source_text": "as §1, §2"}, "[6]": {"test_system": "cytochrome c oxidase (CCO), mitochondrial complex IV", "assay": "CCO activity in hepatocytes", "assay_type": "in vivo, SD rats", "details": "experimental group: 60% high fat diet + rotenone i.p., 8 weeks", "source_text": "as §1, §2"}, "mitochondrial complex I": {"test_system": "mitochondrial complex I", "assay": "Mitochondrial complex I activity inferred from NCCR and SCCR activity", "assay_type": "in vivo, SD rats", "details": "experimental group: 60% high fat diet + rotenone i.p., 8 weeks; combined NCCR and SCCR results", "source_text": "as §1, §2"}}}
{"smiles": "C=C(C)[C@H]1Cc2c(ccc3c2O[C@@H]2COc4cc(OC)c(OC)cc4[C@@H]2C3=O)O1", "note": "[rotenone]", "values": [{"measurement": "cell morphology (H&E staining of liver)", "setting": "liver [1]", "value": "lipid drops and ballooning degeneration"}, {"measurement": "visceral fat weight", "setting": "Visceral fat weight", "value": "51.28±3.41", "unit": "grams"}, {"measurement": "ALT", "setting": "[2]", "value": "39.4 ± 2.61", "unit": "IU/L"}, {"measurement": "AST", "setting": "[2]", "value": "90.1 ± 13.68", "unit": "IU/L"}, {"measurement": "Cholesterol (blood)", "setting": "[2]", "value": "73.4 ± 7.61", "unit": "mg/dL"}, {"measurement": "Triglyceride (blood)", "setting": "[2]", "value": "60.1 ± 10.15", "unit": "mg/dL"}, {"measurement": "concentration of TNF-α", "setting": "liver [3]", "value": "21.34±0.77", "unit": "pg/mg protein"}, {"measurement": "concentration of hydroxyproline (liver)", "setting": "liver [3]; collagen/fibrosis index", "value": "6.68±0.77", "unit": "μg/mg protein"}, {"measurement": "concentration of TBARS (liver)", "setting": "liver [3]; liver homogenate, fluorophotometer", "value": "2.18±0.19", "unit": "μM/mg protein"}, {"measurement": "Non-esterified fatty acids (liver)", "setting": "liver [3]; liver lipid extract", "value": "5.02 ± 0.38", "unit": "µmol/g"}, {"measurement": "Total cholesterol (liver)", "setting": "liver [3]; liver lipid extract", "value": "131.74 ± 5.30", "unit": "mg/dL"}, {"measurement": "Triglyceride (liver)", "setting": "liver [3]; liver lipid extract", "value": "6.78 ± 0.55", "unit": "mg/dL"}, {"measurement": "NCCR activity", "setting": "[4]", "value": "0.68 ± 0.26 nmol/cytochrome c reduced/min/mg protein"}, {"measurement": "SCCR activity", "setting": "[5]", "value": "0.51 ± 0.05 nmol/cytochrome c reduced/min/mg protein"}, {"measurement": "CCO activity", "setting": "[6]", "value": "5.57 ± 2.88 nmol/cytochrome c oxidized/min/mg protein"}, {"measurement": "mitochondrial complex I activity versus control group and contrast group", "setting": "mitochondrial complex I", "value": "lower"}]}
